From patent publication US20260337209A1, “BORON-CAPPED CLATHROCHELATE AND MACROCYCLIC LIGANDS AND METAL COMPLEXES THEREOF” (UVic Industry Partnerships Inc., priority 2022, published 2026)
Structures can show the parent of a compound that is named as a salt. Each block holds one molecule with its values, some of them ahead of it.

Key:
Type in all cases: physicochemical
solubility in solvents = conditions: for solubility in acetone: solvent acetone
[1] = TGA (thermogravimetric analysis); conditions: [4a]·i-PrOH·2 H2O
Experimental: Exemplary embodiments of the technology are illustrated by the following non-limiting Examples, in which the reactions were carried out under air or nitrogen as indicated using commercially available reagents as received unless otherwise specified. NMR spectra were recorded on Bruker AVANCE 300, 360 or 500 MHz instruments relative to residual solvent resonances (^1H, ^13C), an external reference (BF3·OEt2 for ^11B) or by indirect detection (^15N by HMBC, in ppm relative to NH3). Melting points were determined using an Omega Engineering Model 199 instrument and are uncorrected. Mass spectra were recorded on a Q-TOF II instrument by MicroMass using electrospray ionization. TGA were recorded between room temperature and 600° C. Elemental analysis for C, H and N were obtained by Canadian Microanalytical Services, Delta, B.C., Canada or Guelph Chemical Laboratories Ltd., Guelph, ON, Canada.

[2] = CV (cyclic voltammetry) in dry CH3CN; conditions: 0.1 M NBu^n4^+PF6^−
Experimental: Mauve powder. Yield: 92% (based on formula). Mp. dec. 315° C. ^1H NMR (300 MHz, dmso-d6, 298 K): δ 80.0 (1H relative int., v1/2=450 Hz), 77.9 (1H, v1/2=50 Hz), 53.1 (2H, v1/2=480 Hz), 46.8 (2H, v1/2=450 Hz), 39.4 (2H and 1H overlap, broad and sharp resonances), 21.8 and 19.5 (2H each, broad and overlapping), 13.0 (1H, v1/2=400 Hz), −2.0 (1H, v1/2=350 Hz), −4.2 (1H, v1/2=350 Hz), […] (2H, v1/2=450 Hz), −8.6 (1H, v1/2=40 Hz), −28.7 (1H, v1/2=50 Hz), −52.7 (1H, v1/2=450 Hz), −72.8 (v1/2=500 Hz). NMR (360 MHz, dmso-d6, 373 K): δ 18.49 (6H, br s, 4′- or 5′-pzH, v1/2=85 Hz), 17.00 (6H, br s, 3,5-pyH, v1/2=65 Hz), 7.88 (6H, br s, 4′- or 5′-pzH, v1/2=80 Hz), 4.18 (3H, br s, 4-pyH, v1/2=30 Hz), −4.25 (2H, br s, BH, v1/2=320 Hz). […] Fc/Fc^+); Co(NO3)2 under the same conditions: E1/2 (ox)=+1.8 V (vs. Fc/Fc^+). μeff=4.7 BM (Evans' method). A mononuclear 1:1 complex [9a]of cage [4a] with Co^2+ has been characterized by X-ray crystallography. A Co(OH2)3^2+ unit is bound up in the tris(pyrazolyl) cap.
A blue-green powder was obtained from reaction of Cu(NO3)2(H2O)2.5 with [4a] in a 1:1 ratio. The ^1H NMR spectrum of this product is very similar to that of [11c′], obtained as one product in the reaction of Cu(O3SCF3)2 with [4a] in 3:1 ratio. […]

solubility in halocarbons (solubility in solvents; CH2Cl2 and CHCl3): slightly soluble | solubility in alcohols (solubility in solvents; MeOH, EtOH, i-PrOH): slightly soluble | solubility in pure water (solubility in solvents; pure water): very limited solubility | solubility in DMSO (solubility in solvents; solvent DMSO): very soluble | solubility in THF (solubility in solvents; solvent THF): moderately soluble | solubility in acetone (solubility in solvents): very soluble | solubility in acidic water (solubility in solvents; solvent acidic water): moderately soluble | solubility in ethyl acetate (solubility in solvents; solvent ethyl acetate): moderately soluble | onset of decomposition (TGA) [1]: > 450 °C
Molecule: c1cc2nc(c1)-c1ccn(n1)B1n3ccc(n3)-c3cccc(n3)-c3ccn(n3)B(n3ccc-2n3)n2ccc(n2)-c2cccc(n2)-c2ccn1n2 [4a, Tris(2,6-pyrazolylpyridino)diborate dipotassium salt]

solubility in dmso-d6 (solubility in solvents; dmso-d6, mild heating): dissolved with mild heating in dmso-d6 | solubility in acetone (solubility in solvents): would not dissolve in acetone
Molecule: c1cc2cc(c1)-c1ncn(n1)B1n3cnc(n3)-c3cccc(c3)-c3ncn(n3)B(n3cnc-2n3)n2cnc(n2)-c2cccc(c2)-c2ncn1n2 [7a, tris(2,6-di(1′,2′,4′-triazol-3′ yl)benzene)diborate dipotassium salt]

solubility in diethyl ether (solubility in solvents; diethyl ether, relative to the corresponding cage [7′a]): notably less soluble
Molecule: CC1(C)c2ccn(n2)Bn2ccc(n2)C(C)(C)c2ccn(n2)Bn2ccc1n2 [8′a, Bis(2,2-dipyrazolylpropane)diborate dipotassium salt]

Molecule: O=[N+]([O-])[O-].O=[N+]([O-])[O-].[Co+2] [Co(NO3)2]
E1/2 (ox) ([2]; 250 mV s^−1): +1.8 V (vs. Fc/Fc^+)

Molecule: O=[N+]([O-])[O-].O=[N+]([O-])[O-].[Cu+2] [Cu(NO3)2]
E1/2 (red) [2]: −0.8 V (vs. Fc/Fc^+)

solubility in benzene (solubility in solvents; solvent benzene): somewhat soluble
Molecule: Tris(2,6-pyrazolyl-4-(4′-methoxybenzylthiolato)pyridino)diborate dipotassium salt [4t]
